Data on 16 molecules can be found in US4525475A, “Prevention of thrombolic disorder with imidazole derivatives and salts thereof” (priority 1979, dated 1985).

The subject of one assay is PGE, PGF and PGD. Description: Selectivity: amount of PGE, PGF and PGD produced, measured in a similar manner to the thromboxane test. The class given is biochemical, horse. Further details: key: 0: no selectivity; +: low selectivity; ++: medium selectivity; +++: high selectivity; ++++: exceptionally high selectivity. The following applies: greater selectivity = more anti-aggregating prostaglandins produced. As to the method:
(§1) Horse platelets were prepared from whole horse blood by differential centrifugation. Approximately 10^6 platelets were homogenised in 1 ml 100 mM Tris buffer pH 7.4. Various concentrations of active compound were added and the reaction sets incubated for 5 minutes at ambient temperature. To each tube was added 20 nM of arachidonic acid containing 10^6 disintegrations per minute (DPM) of labelled arachidonic acid and the tubes incubated for 3 minutes at 37° C. in a shaking water bath. After incubation the radioactive products were extracted from the acidified aqueous phase with ethyl acetate and after concentration resolved by thin layer chromatography on silica gel with chloroform/methanol/acetic acid/water (90:8:1:0.8) as a developing solvent. The amount of thromboxane produced was measured by scraping the radioactive zone corresponding to thromboxane B2 and estimating the radioactivity in a liquid scintillation counter.
The selectivity of the active compounds was measured in a similar manner to that described above and the amount of PGE, PGF and PGD produced was determined. The greater the selectivity, the more of the anti-aggregating prostaglandins are produced.
The ED50 and Selectivity results are shown in Table A in which 0 indicates no selectivity; +low selectivity; ++medium selectivity; +++high selectivity: ++++exceptionally high selectivity; ND not determined.

For another assay, the target named is T1, TXA2 synthetase (Equus caballus, UniProt A0A9L0T8T9).
T1 construct: labelled arachidonic acid as substrate, thromboxane B2 measured by TLC
T1 sequence (A0A9L0T8T9 2-534): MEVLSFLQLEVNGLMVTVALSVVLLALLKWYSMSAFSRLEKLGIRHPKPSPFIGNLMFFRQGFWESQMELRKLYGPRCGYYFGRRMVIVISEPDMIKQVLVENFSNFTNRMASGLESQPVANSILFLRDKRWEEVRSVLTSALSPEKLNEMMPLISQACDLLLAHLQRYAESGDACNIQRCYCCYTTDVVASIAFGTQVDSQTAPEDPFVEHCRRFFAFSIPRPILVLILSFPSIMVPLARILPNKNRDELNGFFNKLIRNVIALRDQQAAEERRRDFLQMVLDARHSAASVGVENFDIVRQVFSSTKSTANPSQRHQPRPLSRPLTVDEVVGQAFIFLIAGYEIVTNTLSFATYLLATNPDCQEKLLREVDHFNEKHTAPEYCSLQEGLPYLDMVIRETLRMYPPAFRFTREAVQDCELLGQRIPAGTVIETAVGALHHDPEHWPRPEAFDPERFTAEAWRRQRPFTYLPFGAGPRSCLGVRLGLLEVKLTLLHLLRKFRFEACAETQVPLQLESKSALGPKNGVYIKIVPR
Kind of assay: Inhibition of TXA2 synthetase: thromboxane (thromboxane B2) produced from labelled arachidonic acid by homogenised horse platelets. In kind it is biochemical. The following applies: horse platelet homogenate, 100 mM Tris buffer pH 7.4, 5 min preincubation at ambient temperature, 3 min at 37° C. with arachidonic acid; for IC50: read-out: ED50 (concentration of active compound to reduce the enzyme activity by 50%) (converted). As to the method:
as §1
The concentration of active compound to reduce the enzyme activity by 50% (ED50) was established.

The test system of assay [1] is enzymic conversion of the endoperoxides (PGG2 and PGH2) to thromboxane A2 by platelet microsomes. As to conditions: Moncada et al., Prostaglandins, 13/4, 611-618, 1977; cited from earlier work.
The next assay relates to serum cholesterol. As to conditions: U.K. Pat. No. 1 364 312; Biochem. Pharmacol., 24, 1902-1903, 1975; cited from earlier work.

pIC50: −log10 of the molar value. Where two headings read alike, the source gives them in different places. Where only a bound is given, the exact number is not on record here.

For the molecule `c1cn(CC2CC3CCC2C3)cn1` (centres unmarked) [Example 4, 1-(Bicyclo[2.2.1]heptan-2-ylmethyl)imidazole], in the assay on PGE, PGF and PGD, the Selectivity result is on record as “+++”. For the same molecule, the IC50 at TXA2 synthetase was 28.4 µM.
Turning to `CC1(C)C(=CCn2ccnc2)C2CCC1C2` (centres unmarked) [15 (b), 1-[2-(3,3-Dimethylbicyclo[2.2.1]heptan-2-ylidene)ethyl]imidazole], at TXA2 synthetase, the IC50 is less than 69.3 µM.
As to `CC1(C)C2CC=C(Cn3ccnc3)C1C2` (centres unmarked) [Example 7, 1-(6,6-Dimethylbicyclo[3.1.1]hept-2-en-2-ylmethyl)imidazole], in the assay on PGE, PGF and PGD, the Selectivity result was “+++”. Moreover, at TXA2 synthetase, the IC50 was 74.1 µM.
For `C1=CC2CC1CC2CC(C1CC2C=CC1C2)n1ccnc1` (centres unmarked) [Example 13, 1-{1,2-[Bis-(bicyclo[2.2.1]hept-5-en-2-yl)]ethyl}imidazole], the Selectivity entry with PGE, PGF and PGD was “++”. For the same molecule, the IC50 at TXA2 synthetase was 89.2 µM.
Take `c1cn(CC2C3CC4C(C3)C24)cn1` (centres unmarked) [15 (c), 1-(Tricyclo[2.2.1.0^3,5]heptan-2-ylmethyl)imidazole]: the Selectivity result with PGE, PGF and PGD is “+++”. The IC50 at TXA2 synthetase was less than 57.4 µM.
Consider `c1cn(CC2COC3(CCCCC3)O2)cn1` (centres unmarked) [Example 10, 1-(1,4-Dioxaspiro[4.5]decan-2-ylmethyl)imidazole], for which the IC50 on TXA2 synthetase was more than 225 µM.
In the case of `c1cn(C2CC3CCC2C3)cn1` (centres unmarked) [Example 11, 1-(Bicyclo[2.2.1]heptan-2-yl)imidazole], the IC50 at TXA2 synthetase is 290 µM.
Regarding `c1cn(CC2CN3CCC2CC3)cn1` (centres unmarked) [Example 12, 1-(1-Azabicyclo[2.2.2]octan-3-ylmethyl)imidazole], the Selectivity entry with PGE, PGF and PGD was “++”. The IC50 on TXA2 synthetase was 157 µM.
On to `CC1(C)C2CCC(CCn3ccnc3)C1C2` (centres unmarked) [Example 1, 1-[2-(6,6-dimethylbicyclo[3.1.1]heptan-2-yl)ethyl]imidazole], for which the Selectivity result with PGE, PGF and PGD is listed as “+++”. Also, at TXA2 synthetase, the IC50 is 19.7 µM.
Consider `CC1(C)C2CC=C(CCn3ccnc3)C1C2` (centres unmarked) [Example 2, 1-[2-(6,6-Dimethylbicyclo[3.1.1]hept-2-en-2-yl)ethyl]imidazole], for which the Selectivity entry in the assay with PGE, PGF and PGD is “+++”. Moreover, the IC50 at TXA2 synthetase was 16.2 µM.
Regarding `Cn1ccnc1` [1-Methylimidazole, reference compound], the Selectivity entry in the assay on PGE, PGF and PGD is given as “++”. Further, the IC50 at TXA2 synthetase was not below 2440 µM. The “inhibition of the enzymic conversion of the endoperoxides to thromboxane A2” value in assay [1] is “some degree of inhibition”.
With `CCCCCCCCCCCCn1ccnc1` [1-n-dodecylimidazole], the “lowering serum cholesterol levels” value with serum cholesterol is given as “capable of lowering serum cholesterol levels”.
Take `C1=CC2CC1CC2Cn1ccnc1` (centres unmarked) [Example 3, 1-(Bicyclo[2.2.1]hept-5-en-2-ylmethyl)imidazole]: the Selectivity result with PGE, PGF and PGD is “+++”. Further, the IC50 on TXA2 synthetase was 57.4 µM.
Regarding `CC1(C)C2CCC(Cn3ccnc3)C1C2` (centres unmarked) [Example 8, 1-(6,6-Dimethylbicyclo[3.1.1]heptan-2-ylmethyl)imidazole], in the assay on PGE, PGF and PGD, the Selectivity entry is listed as “+++”. Besides, the IC50 on TXA2 synthetase is 24.5 µM.
In the case of `c1cn(CCC23CC4CC(CC(C4)C2)C3)cn1` [Example 9, 1-[2-(Adamantan-1-yl)ethyl]imidazole], the Selectivity result in the assay on PGE, PGF and PGD is on record as “++++”. In addition, the IC50 at TXA2 synthetase was 65.1 µM.
With `c1c[nH]cn1` [Imidazole], the pIC50 at TXA2 synthetase (read-out: ED50 (concentration of active compound to reduce the enzyme activity by 50%)) is not above 2.13. The “inhibition of the enzymic conversion of the endoperoxides to thromboxane A2” value in assay [1] is given as “some degree of inhibition”.
